Reference: US5563142A, “Diaromatic substituted compounds as anti-HIV-1 agents” (The Upjohn Company, priority 1994, dated 1996)
Counter-ions that a name gives are not always drawn. Like-named read-outs stand apart in the source and are kept apart here.

Experiments:
[1] = molecular target: T1, viral reverse transcriptase (Human immunodeficiency virus type 1 group M subtype B, UniProt P04585); test: Viral reverse transcriptase inhibition, cell free assay; format: biochemical, human immunodeficiency virus (HIV-1)
T1 construct: Viral reverse transcriptase is found in extracts from bacterial clones; made in house; host or cells: Escherichia coli (extracts of bacterial clones, by the procedure of Larder et al., EMBO J. 6:3133-3137, 1987)
From the text: The utility of the diaromatic substituted piperazines (III), the anti-AIDS piperazines (IV) and the indoles (V) of this invention can be determined by their ability to inhibit viral reverse transcriptase, an enzyme essential for human immunodeficiency virus replication. This enzyme has characteristics which differentiate it from other known cellular polymerases and it is a unique enzyme which is not found in uninfected cells. Viral reverse transcriptase is found in extracts from bacterial clones prepared according to the procedure described in AIDS Virus Reverse Transcriptase defined by high level expression in Escherichia coli, EMBO J. 6:3133-3137 (1987). Inhibition of this enzyme is determined in a cell free assay which measures the level of radioactive precursors incorporated into DNA. Extracts prepared according to the procedure of Science, 1125-1129 (1981) are incubated in a mixture of inhibitor, 20 mM dithiothreitol, 60 mM sodium chloride, 0.05% NP-40, 10 mM magnesium chloride, 50 mM Tris pH 8.3, 10 μM [^35 S]-labeled deoxynuleoside-5'-triphosphate, 10 μg/ml RNA template (poly rC or poly rG) and 5 μg/ml DNA primer (oligo dG or oligo dT) for 30 minutes at 37° C. Incorporation of radio-labeled percursor is determined by spotting aliquots of the reaction mixture on DE81 paper, washing the papers to remove unincorporated percursor, drying and determining counts. The results (IC50 means the concentration, in μM of drug, required to inhibit the reverse transcriptase activity to the extent of 50%) of various assay(s) are combined and reported as % inhibition and IC50 (calculated).
^1 Viral reverse transcriptase is found in extracts from bacterial
clones prepared according to the procedure described by Larder, B.,
Purifoy D., Powell, K. and Darby, G., AIDS virus reverse transcriptase
defined by high level expression in Escherichia coli., EMBO J. 6,
3133-3137 (1987). Inhibition of this enzyme is determined in a cell free
assay which measures the level of radioactive precursors incorporated int
DNA. Extracts prepared according to the procedure of Kleid, D. G., et
al., Science, 1125-1129 (1981) are incubated in a mixture of inhibitor, 2
mM dithiothreitol, 60 mM sodium chloride, 0.05% NP40, 10 mM magnesium
chloride, 50 mM Tris pH 8.3, 10 μM [^35 Slabeled
deoxynucleoside5triphosphate, 10 μg/ml RNA template (poly rC or poly
rG) and 5 μg/ml DNA primer (oligo dG or oligo dT) for 15 minutes at
37°. Incorporation of radio labeled precursor is determined by
harvesting the trichloroacetic acid precipitated reaction mixtures on
glass fiber filters, drying, and determining counts. The results of
various assays are combined and reported as % inhibition at a 100 μM

[2] = test system: HIV in primary human peripheral blood lymphocytes; test: Primary PBL assay: inhibition of viral replication (p24 & RNA); format: cell-based; conditions: Human immunodeficiency virus 1, Lymphocyte, primary human lymphocytes infected with HIV, days three and four, read-out: PBL INHIBITION OF VIRAL REPLICATION (p24 & RNA) ED50
Protocol: ^3 The utility of the compounds of the invention is further
infection in primary peripheral blood lymphocytes (primary PBL assay). Th
primary PBL assay offers the following advantages:
(a) The assays are performed with primary human lymphocytes. Thereby,
undesired testing of transformed cell lines is avoided in which host cell
and virus may have undergone processes of mutual adaptation. Performance
of cell culture in serum containing media closely mimics the in vivo
situation. (b) The primary PBL assay distinguishes between true antiviral
effect which is due to the drug and cytostatic/cytotoxic reactions. (c)
Viral replication is precisely followed by kinetic measurement of viral
nucleic acids and proteins. (d) Nucleic acids (total HIVRNA intra and
extracellular) and protein (secreted p24) are measured in parallel which
permits one to differentiate between the compound's effect on virus
replication and on the expression of viral proteins. This leads to
additional information regarding the efficacy of the test compound. (e)
Tolerance of the cell culture against low amounts of organic solvents als
permits the investigation of hydrophobic substances. (f) The dose of the
drug causing half maximal suppression of virus replication is determined.
(g) The screening system is standardized and automated to a high degree.
The primary PBL assay uses the following procedure:
Effects of the compounds of the invention on cell proliferation are determined by lymphocyte proliferation assays. Starting with a 100 micromolar solution, the compound is serially diluted 10 fold. One tenth of the concentration of a compound causing half maximal inhibition of cellular proliferation is employed for all subsequent testing.
Peripheral human lymphocytes are isolated by density gradient centrifugation. After stimulation by mitogen the cells are infected with a standardized preparation of HIV. Subsequently, the infected cells are cultured in the presence of the drug for four days. Individual cultures are established to measure viral replication three and four days following infection. Untreated cells and AZT-treated cells are included as controls in parallel with the drugs under investigation.
The amount of viral core protein p24 synthesized and release by the infected cells is determined in the supernatant by the capture-ELISA technique on days three and four. By comparing with a standard preparation, the amount of protein produced by the virus infected cells is quantified.
The total amount of viral RNA synthesized by the infected lymphocytes is determined by a special nucleic acid hybridization on days three and four of culture. By including a standard preparation of HIV-RNA the amount of synthesized RNA is quantified.
In addition, viability of HIV-infected cells is determined in parallel with assays for viral p24 and RNA. In order to evaluate the half maximal antiviral effect of the drug, a concentration dependency of the drug action is measured.
Numerous examples of the compounds of the invention are assayed according to this procedure. The anti-HIV activity, as measured by the inhibition of the release of core p24 protein in HIV infected human lymphocytes, is used to calculate ED50 -antiviral (the concentration required to give a 50% reduction in p24 synthesis).

[3] = read-out: RT % INHIBITION (100 μM), 100 μM, poly rC or poly rG template

| Structure (SMILES) | inhibition at 100 µM [1, 3] | EC50 [2] | inhibition at 100 µM ([1]; read-out: RT % INHIBITION (100 μM)) |
| --- | --- | --- | --- |
| Cc1c(C(=O)N2CCN(c3ncccc3NC(C)C)CC2)[nH]c2ccccc12 [Example 73, 1-[3-methylindolyl-2-carbonyl]-4-[3-(1-methylethylamino)-2-pyridinyl]piperazine] | 94 to 95% | < 1 nM | – |
| CC(C)Nc1cc(F)ccc1N1CCN(C(=O)c2cc3ccccc3[nH]2)CC1 [Example 74, 1-[Indolyl-2-carbonyl]-4-[2-(1-methylethylamino)-4-fluorophenyl]piperazine] | 82 to 84% | 10 to 100 nM | – |
| CC(C)Nc1ccc(F)cc1N1CCN(C(=O)c2cc3ccccc3[nH]2)CC1 [Example 75, 1-[Indolyl-2-carbonyl]-4-[2-(1-methylethylamino)-5-fluorophenyl]piperazine] | 77% | 10 to 100 nM | – |
| O=C(c1cc2ccccc2[nH]1)N1CCN(c2ncccc2N2CCCC2)CC1 [Example 76, 1-[Indolyl-2-carbonyl]-4-[3-(1-pyrrolidinyl)-2-pyridinyl]piperazine] | 65 to 76% | 100 to 1000 nM | – |
| CC(C)Nc1cccnc1N1CCCN(C(=O)c2cc3cc(F)ccc3[nH]2)CC1 [Example 84] | 97% | < 1 nM | – |
| COc1ccc2cc(C(=O)N3CCN(c4ncccc4NC(C)C)CC3)[nH]c2c1 [Example 87, 1-[6-Methoxyindolyl-2-carbonyl]-4-[3-(1-methylethylamino)-2-pyridinyl]-piperazine] | 96 to 98% | 10 nM | – |
| COc1cccc2[nH]c(C(=O)N3CCN(c4ncccc4NC(C)C)CC3)cc12 [Example 88, 1-[4-Methoxyindolyl-2-carbonyl]-4-[3-(1-methylethylamino)-2-pyridinyl]piperazine] | 56 to 88% | 100 nM | – |
| Cc1ccc2[nH]c(C(=O)N3CCN(c4ncccc4NC(C)C)CC3)cc2c1 [Example 89, 1-[5-Methylindolyl-2-carbonyl]-4-[3-(1-methylethylamino)-2-pyridinyl]piperazine] | 61 to 74% | 100 nM | – |
| CC(C)Nc1cccnc1N1CCN(C(=O)c2cc3cc4c(cc3[nH]2)OCO4)CC1 [Example 90, 1-[5,6-Methylenedioxyindolyl-2-carbonyl]-4-[3-(1-methylethylamino)-2-pyridinyl]piperazine] | 96% | < 1 nM | – |
| COc1cc2[nH]c(C(=O)N3CCN(c4ncccc4NC(C)C)CC3)cc2cc1F [Example 91, 1-[5-Fluoro-6-methoxyindolyl-2-carbonyl]-4-[3-(1-methylethylamino)-2-pyridinyl]piperazine] | 85 to 91% | 100 nM | – |
| COc1ccc2cc(C(=O)N3CCN(c4ncccc4NC(C)C)CC3)[nH]c2c1Br [Example 92, 1-[7-Bromo-6-methoxyindolyl-2-carbonyl]-4-[3-(1-methylethyl-amino)-2-pyridinyl]piperazine] | 94% | 100 to 1000 nM | – |
| COc1cc2[nH]c(C(=O)N3CCN(c4ncccc4NC(C)C)CC3)cc2cc1Br [Example 94, 1-[5-Bromo-6-methoxyindolyl-2-carbonyl]-4-[3-(1-methylethylamino)-2-pyridinyl]piperazine] | 85% | 10 to 100 nM | – |
| CC(C)Nc1cccnc1N1CCN(C(=O)c2cc3ccc(N(C)C)cc3[nH]2)CC1 [Example 95, 1-[6-(N,N-Dimethylamino)indolyl-2-carbonyl]-4-[3-(1-methylethylamino)-2-pyridinyl]piperazine] | 81 to 93% | < 1 nM | – |
| Cc1cccc2[nH]c(C(=O)N3CCN(c4ncccc4NC(C)C)CC3)cc12 [Example 97, 1-[4-Methylindolyl-2-carbonyl]-4-[3-(1-methylethylamino)-2pyridinyl]-piperazine] | 52 to 80% | ≤ 10 nM | – |
| CCC(C)Nc1cccnc1N1CCN(C(=O)c2cc3ccccc3[nH]2)CC1 (stereo not shown) [Example 99] | 93 to 95% | 1 to 10 nM | – |
| CC(C)Nc1cccnc1N1CCN(C(=O)c2cc3cc(N)ccc3[nH]2)CC1 [Example 101, 1-[5-Aminoindolyl-2-carbonyl]-4-[3-(1-methylethylamino)-2-pyridinyl]-piperazine] | 93 to 96% | 10 nM | – |
| CC(C)(C)CNc1cccnc1N1CCN(C(=O)c2cc3cc(F)ccc3[nH]2)CC1 [Example 102, 1-[5-Fluoroindolyl-2-carbonyl]-4-[3-(2',2'-dimethylpropylamino)-2-pyridinyl]piperazine] | 48% | 10000 nM | – |
| CC(C)Nc1cccnc1N1CCN(C(=O)c2cc3cc([N+](=O)[O-])ccc3[nH]2)CC1 [Example 103, 1-[5-Nitroindolyl-2-carbonyl]-4-[3-(1-methylethylamino)-2-pyridinyl]piperazine] | 72% | < 10 nM | – |
| CC(=O)Nc1ccc2[nH]c(C(=O)N3CCN(c4ncccc4NC(C)C)CC3)cc2c1 [Example 104, 1-[5-Acetamidoindolyl-2-carbonyl]-4-[3-(1-methylethylamino)-2-pyridinyl]piperazine] | 92 to 96% | 10 nM | – |
| CC(C)Nc1cccnc1N1CCN(C(=O)c2cc3cc(NS(C)(=O)=O)ccc3[nH]2)CC1 [Example 105, 1-[5-Methanesulfonamidoindolyl-2-carbonyl]-4-[3-(1-methylethylamino)-2-pyridinyl]piperazine] | – | ≤ 1 nM | 82 to 96% |
| COCC(C)Nc1cccnc1N1CCN(C(=O)c2cc3cc(F)ccc3[nH]2)CC1 (stereo not shown) [Example 106, 1-[5-Fluoroindolyl-2-carbonyl]-4-[3-(2-methoxy-1-methylethylamino)-2-pyridinyl]piperazine] | 76 to 81% | ≤ 1 nM | – |
| C=CCNc1cccnc1N1CCN(Cc2cc(C)c(OC)c(C)c2)CC1 [Example 116, 1-[4-Methoxy-3,4-dimethylbenzyl]-4-(3-(2-propenylamino)-2-pyridinyl]piperazine, hydrochloride] | 45 to 52% | < 10000 nM | – |
| CC(C)Nc1cccnc1N(C)CCCCN(C)C(=O)c1cc2ccccc2[nH]1 [Example 124, N,N'-Dimethyl-N-(indolyl-2-carbonyl)-N'-[3-(1-methylethyl-amino)-2-pyridyl]-1,4-butanediamine] | 95% | > 100 nM | – |
